Laboratory results taken from patent publication US9869681B2, “Process for treating an individual with an esthetic defect of skin by modulating SASPase FLG2 complex” (L'OREAL, priority 2010, dated 2018).
Where a chain is given by its changes, count along the chain named.

B1: FLG2-Hs: recombinant filaggrin-2, amino acids 2-213 of Q5D862, fused N-terminally to thioredoxin-His-S.Tag; active form (protein, UniProt Q5D862 2-213, looked up, fragment)
chain: TDLLRSVVTVIDVFYKYTKQDGECGTLSKGELKELLEKELHPVLKNPDDPDTVDVIMHMLDRDHDRRLDFTEFLLMIFKLTMACNKVLSKEYCKASGSKKHRRGHRHQEEESETEEDEEDTPGHKSGYRHSSWSEGEEHGYSSGHSRGTVKCRHGSNSRRLGRQGNLSSSGNQEGSQKRYHRSSCGHSWSGGKDRHGSSSVELRERINKSHI
modifications: N-terminal thioredoxin-His-S.Tag fusion
B2: FLG2-AbD: recombinant filaggrin-2, amino acids 81-212 of Q5D862, fused N-terminally to thioredoxin-His-S.Tag; inactive form (protein, UniProt Q5D862 81-212, looked up, fragment)
chain: LTMACNKVLSKEYCKASGSKKHRRGHRHQEEESETEEDEEDTPGHKSGYRHSSWSEGEEHGYSSGHSRGTVKCRHGSNSRRLGRQGNLSSSGNQEGSQKRYHRSSCGHSWSGGKDRHGSSSVELRERINKSH
modifications: N-terminal thioredoxin-His-S.Tag fusion

Experiments:
SASPase-FLG2 interaction = target: T1, SASPase-FLG2 interaction (Homo sapiens, UniProt Q53RT3, D212A); experiment: HTRF (FRET) screening of agents that modulate the SASPase-FLG2 interaction; assay type: binding; settings: SASPase85-343D212A-GST 50 nM, FLG22-213-S-His-THX 200 nM, PBS pH 7.4; read-out: IC50, inhibition of the SASPase-FLG2 interaction
T1 construct: made in house; host or cells: E. coli BL21DE3
T1 sequence (Q53RT3 85-343 D212A): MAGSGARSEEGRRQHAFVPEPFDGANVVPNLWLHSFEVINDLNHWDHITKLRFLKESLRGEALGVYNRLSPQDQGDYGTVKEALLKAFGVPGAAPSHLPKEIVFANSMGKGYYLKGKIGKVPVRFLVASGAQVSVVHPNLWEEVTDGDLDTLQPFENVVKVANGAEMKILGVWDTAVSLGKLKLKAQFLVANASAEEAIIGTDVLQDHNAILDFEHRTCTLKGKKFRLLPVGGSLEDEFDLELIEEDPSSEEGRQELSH
Procedure: The process developed is based on the FLG2-SASPase interaction and uses the homogeneous time-resolved fluorescence (or HTRF) technique.
A recombinant SASPase protein (comprising the amino acid sequence 85-343 of Q53RT3) mutated at its active site (D212A of Q53RT3) and fused with the GST (glutathione S-transferase from Schistosoma japonicum) affinity marker, at its C-terminal end, was prepared in the vector pGEX-4-T3 (GenBank U13855) (SASPase85-343D212A-GST). The D212A mutation was introduced to inactivate the SASPase and to promote a stable interaction with FLG2. […]
Antibodies recognizing, respectively, the affinity markers GST or His-S.Tag, and bearing, respectively, an EuK fluorescence donor group (europium cryptate λex 337 nm/λem 620 nm) or an XL1665 fluorescence receiver group (λex 570-630 nm/λem 665 nm) are used to monitor the peptide-SASPase interaction.
The SASPase-FLG2 interaction was observed by fluorescence energy transfer (FRET) between the fluorescent markers Euk and XL1665. The Euk fluorescence donor was excited at λex 337 nm and the fluorescence emission of the XL1665 fluorescence acceptor was measured at λem 665 nm.
The Euk fluorescence emission at λem 620 nm, taking place independently of the interaction between SASPase and FLG2, was used to normalize the signal. Thus, for each point, a ratio λem 665/λem 620 is determined. […]

[1] = system: reconstructed human epidermis Episkin J6; experiment: Stratum corneum thickness by histological observation on slices of Episkin reconstructed epidermis; assay type: cell-based; settings: tested at 10 μM, 1 μM and 0.5 μM; observed at and above the lowest concentration tested
Procedure: (§1) A model of reconstructed human epidermis Episkin J6 (reference 09-EPIS-015) was cultured by immersion in Episkin differentiation medium, 3.5 ml under insert in an oven at 37° C., 5% CO2, the medium being changed every 2 days.
(§2) The compound “M7” was tested at concentrations of 10 μM, 1 μM and 0.5 μM by incubation of the epidermal model with a differentiation culture medium supplied by EpiSkin®, comprising the compound at the test concentration or a buffer solution as control (DMSO at 0.1% final).
(§3) The effect of the compound “M7” on the differentiation and/or proliferation of epidermal cells is evaluated by measuring the thickness of the stratum corneum, and measurement of the expression and/or activation of transglutaminase I (TGI), caspase 14, SASPase, corneodesmosin, desmoglein 1 or protein Ki67.
The thickness of the stratum corneum was estimated by histological observation on slices.

[2] = system: reconstructed human epidermis Episkin J6; experiment: Western blotting of differentiation markers in Episkin reconstructed epidermis; assay type: cell-based; settings: Episkin epidermis cultured in the presence of M7 (10 μM, 1 μM, 0.5 μM)
Procedure: as §1, §2, §3
The activation, expression and maturation of TGI, filaggrin, caspase 14, SASPase, corneodesmosin and desmoglein 1 were determined by western blotting.
For the western blotting, the soluble proteins, TGI, caspase 14, corneodesmosin and SASPase were extracted from two Episkin® nacelles with a manual potter in 1 ml of “native +” buffer (TBS, 1M NaCl, 0.1% Tween 20). The extract is centrifuged at 14 000 rpm, at 4° C. for 10 minutes. The supernatant obtained is filtered through a 0.45 μm Millipore filter (millex) and the proteins are then quantified by the BCA method (Pierce). The protein concentrations are equilibrated to 625 μg/ml final.
The extracts are deposited on a 10-20% Criterion gel (ref.: 345-0044 Bio-Rad) according to the supplier's protocol, and are then transferred onto a PVDF membrane via the semi-dry method.
The western blotting immunochemical detection is performed according to a standard protocol carried out with primary antibodies specific for the target and secondary antibodies coupled to HRP. Revelation is performed with the kits ECL; ECL plus; ECL advanced (Amersham) according to the necessary sensitivity and according to the supplier's protocol. The photon imaging apparatus used is the Fluor S Multilmager (Bio-Rad).
For TGI, primary antibody: Covalab pab 0061 at 1/100 produced in rabbits; secondary antibody: HRP-coupled anti-rabbit antibody at 1/4000: Bio-rad 170-6515
For caspase 14, primary antibody: Santa Cruz sc-5628 at 1/500 produced in rabbits; secondary antibody: HRP-coupled anti-rabbit antibody at 1/400: Bio-rad 170-6515
For corneodesmosin, primary antibody: Abnova 1041-M01 at 1/5000 produced in mice; secondary antibody: HRP-coupled anti-mouse antibody at 1/4000: Bio-rad 170-6516
For SASPase, primary antibody: Covalab 7H9a105 at 1/2000 produced in mice; secondary antibody: HRP-coupled anti-mouse antibody at 1/4000: Bio-rad 170-6516
For the western blotting of filaggrin and desmoglein 1, these proteins are extracted from the pellet obtained during the extraction of the “soluble” proteins. The pellets are ground with an electric potter in 200 μl of whole Laemmli buffer ([…] Tris; 2% SDS; 200 mM DTT; 10% glycerol) and then heated at 90° C. for 10 minutes and finally centrifuged for 10 minutes at 14 000 rpm at room temperature.
The supernatants obtained are assayed for proteins via the Bradford method (cytoskeleton). The total protein concentrations are equilibrated to 1 mg/ml final. A western blotting protocol identical to the previous one is applied.
For desmoglein 1, primary antibody: Progen 61002 at 1/100 produced in mice; secondary antibody: HRP-coupled anti-mouse antibody at 1/4000: Bio-rad 170-6516

[3] = system: reconstructed human epidermis Episkin J6; experiment: Ki67 immunofluorescence on frozen slices of Episkin reconstructed epidermis; assay type: cell-based; settings: Episkin epidermis cultured in the presence of M7 (10 μM, 1 μM, 0.5 μM)
Procedure: as §1, §2, §3
The activation, expression and maturation of Ki67 were determined by immunofluorescence on frozen slices.
The immunofluorescence labeling on frozen slices is performed using a standard protocol, with a PBS buffer; 0.2% BSA for the steps of washing and incubation of the primary and secondary antibodies, and with a PBS buffer; 5% BSA for the step for blocking the nonspecific sites.
For the detection of Ki67, primary antibody: Novocastra mm1 at 1/20 produced in mice; secondary antibody: AlexaFLuor A488-coupled anti-mouse antibody at 1/1000 (Molecular Probes A11017). […]

[4] = target: T2, recombinant SASPase (28 kDa) (Homo sapiens, UniProt Q53RT3); experiment: Enzymatic activation of SASPase by FLG2 (hydrolysis of fluorescent substrate Dabcyl-QIDRIMEK-Edans); assay type: biochemical; settings: for enzymatic activity of the SASPase: increasing concentration of FLG2 form (0.01 to 10 times SASPase 0.025 mg/ml), acetate/acetic acid buffer pH 5.5, 37° C.
T2 construct: made in house
T2 sequence (Q53RT3 85-343): T1 sequence (Q53RT3 85-343 D212A) with A128D
Procedure: The enzymatic reaction is performed in an acetate/acetic acid buffer. The FIGURE illustrates the mean±sem of an experiment performed in duplicate.
A 28-kDa recombinant SASPase corresponding to the amino acid sequence 85 to 343 of the sequence Q53RT3 (Uniprot/Swissprot ref.) was prepared as described by Bernard et al. (J. Invest. Dermatol., 2005, 125: 278-287) (SASPase85-343).
The SASPase was dissolved in a PBS buffer and used at a final concentration of 0.025 mg/ml in the presence of a final concentration of a colorimetric substrate Dabcyl-QIDRIMEK-Edans of 0.01 mM (Production Jerini Peptide Ref. D17: JPT Peptide Technologies GmbH).
FLG2-Hs and FLG2-AbD are used at concentrations corresponding to 0.01, 0.02, 0.04, 0.08, 0.16, 0.31, 0.63, 1.25, 2.5, 5 or 10 times the final concentration of SASPase, i.e. 0.025 mg/ml.
SASPase and FLG2-Hs, or FLG2-AbD, are incubated at 37° C. in a 0.1 M acetate/acetic acid buffer at pH 5.5 containing 150 mM of NaCl, in the presence of Dabcyl-QIDRIMEK-Edans.
The hydrolysis of the colorimetric substrate by the activated SASPase leads to the separation of the Edans fluorochrome and of its Dabcyl deactivator (or quencher), and to an increase in the fluorescence of Edans.
Measurement of the fluorescent signal is performed at λex 340 nm/[…]. The fluorescence is read every 10 minutes for 1 hour 30 minutes at 37° C., with a Spectramax M5e (Molecular Devices).

| Molecule | IC50 (SASPase-FLG2 interaction) [nM] | thickness of the stratum corneum [1] | expression and activation of SASPase [2] | expression and activation of TGI (transglutaminase I) [2] | expression and activation of caspase 14 [2] | expression and activation of corneodesmosin [2] | expression and activation of desmoglein [2] | activation and expression of the protein Ki67 [3] | FLG2 concentration at and above which activation of SASPase proteolytic activity is obtained ([4]; SASPase 0.025 mg/ml) | enzymatic activity of the SASPase [4] |
| --- | --- | --- | --- | --- | --- | --- | --- | --- | --- | --- |
| Cc1ccc(C(=O)Oc2cccc(C3C4=C(Nc5c3c(=O)n(C)c(=O)n5C)c3ccccc3C4=O)c2)cc1 (centres unmarked) [M7] | ~2000 | thickening | increase | increase | increase | increase | increase | decrease | – | – |
| B1 | – | – | – | – | – | – | – | – | equivalent to that of the SASPase | significantly increased |
| B2 | – | – | – | – | – | – | – | – | – | virtually unchanged |
